Reference: patent publication US20100285959A1, “HERBICIDAL MIXTURES” (priority 2006, published 2010)

How the values were obtained:
velvetleaf (ABUTH) = experiment: Test 25 field trial, postemergence, growth as percent of control; type: in vivo, Abutilon theophrasti
Source text: (§1) Corn seeds (hybrid ‘Pioneer 31G96 RR’) were planted in mid spring season, 3.8 cm deep in a clay loam soil having 2% organic matter and a pH of 6.6. Plots were 6.1 m long by 3.0 m wide with rows spaced 76 cm apart. Seeds were spaced 15 cm apart within the rows. The field was managed using conventional tillage practices. […] Giant ragweed and Pennsylvania smartweed could only be evaluated 14 days after application. […] Results are the means of the three replicates. This growth inhibition data was converted to results in the form of “plant growth as a percent of control plant growth” using the calculation “100 minus growth inhibition”.
(§2) When this form of Colby's Equation is used, if the observed effects on weeds are less than the expected values, the mixture is synergistic.

common ragweed (AMBEL) = experiment: as above; type: in vivo, Ambrosia artemisiifolia
Source text: as §1, §2

[1] = tested on: Pennsylvania smartweed (POLPY); experiment: as above; type: in vivo, Polygonum pensylvanicum; conditions: 14 DAA
Source text: as §1, §2

[2] = tested on: common lambsquarters (CHEAL); experiment: as above; type: in vivo, Chenopodium album
Source text: as §1, §2

giant foxtail (SETFA) = experiment: as above; type: in vivo, Setaria faberi
Source text: as §1, §2

corn (ZEAMD) = experiment: as above; type: in vivo, Zea mays ssp. indentata
Source text: as §1, §2

giant ragweed (AMBTR) = experiment: as above; type: in vivo, Ambrosia trifida; conditions: 14 DAA
Source text: as §1, §2

redroot pigweed (AMARE) [3] = experiment: as above; type: in vivo, Amaranthus retroflexus
Source text: as §1, §2

redroot pigweed (AMARE) [4] = experiment: Test 24 growth chamber, postemergence; type: in vivo, Amaranthus retroflexus; conditions: 17 DAA
Description: (§3) Plants were treated postemergence at the 2-4 leaf growth stage, and each treatment was replicated three times. […] Plants were watered as needed. […] Results for barley and wheat are the means across varieties of the three replicates, and results for the weeds are the means of the three replicates.

field poppy (PAPRH) = experiment: Test 24 growth chamber, postemergence; type: in vivo, Papaver rhoeas; conditions: 17 DAA
Description: as §3

galium (GALAP) = experiment: Test 24 growth chamber, postemergence; type: in vivo, Galium aparine; conditions: 17 DAA
Description: as §3

wild mustard (SINAR) = experiment: Test 24 growth chamber, postemergence; type: in vivo, Sinapis arvensis; conditions: 17 DAA
Description: as §3

kochia (KCHSC) = experiment: Test 24 growth chamber, postemergence; type: in vivo, Kochia scoparia; conditions: 17 DAA
Description: as §3

field violet (VIOAR) = experiment: Test 24 growth chamber, postemergence; type: in vivo, Viola arvensis; conditions: 17 DAA
Description: as §3

Russian thistle (SASKR) = experiment: Test 24 growth chamber, postemergence; type: in vivo, Salsola kali; conditions: 17 DAA
Description: as §3

wild buckwheat (POLCO) = experiment: Test 24 growth chamber, postemergence; type: in vivo, Polygonum convolvulus; conditions: 17 DAA
Description: as §3

common chickweed (STEME) = experiment: Test 24 growth chamber, postemergence; type: in vivo, Stellaria media; conditions: 17 DAA
Description: as §3

[5] = tested on: common lambsquarters (CHEAL); experiment: Test 24 growth chamber, postemergence; type: in vivo, Chenopodium album; conditions: 17 DAA
Description: as §3

wild chamomile (MATCH) = experiment: Test 24 growth chamber, postemergence; type: in vivo, Matricaria chamomilla; conditions: 17 DAA
Description: as §3

[6] = Diflufenzopyr 30 g a.i./ha, 14 DAA
[7] = Diflufenzopyr 30 g a.i./ha, 28 DAA
[8] = Diflufenzopyr 30 g a.i./ha, 56 DAA
[9] = Diflufenzopyr 45 g a.i./ha, 14 DAA
[10] = Diflufenzopyr 45 g a.i./ha, 28 DAA
[11] = Diflufenzopyr 45 g a.i./ha, 56 DAA
[12] = Nicosulfuron 15 g a.i./ha, 14 DAA
[13] = Nicosulfuron 15 g a.i./ha, 28 DAA
[14] = Nicosulfuron 15 g a.i./ha, 56 DAA

## C/C(=N\NC(=O)Nc1cc(F)cc(F)c1)c1ncccc1C(=O)O [Diflufenzopyr]
Velvetleaf (ABUTH); [6]
  ABUTH Obs (percent of control): 28%
Velvetleaf (ABUTH); [7]
  ABUTH Obs (percent of control): 58%
Velvetleaf (ABUTH); [8]
  ABUTH Obs (percent of control): 33%
Velvetleaf (ABUTH); [9]
  ABUTH Obs (percent of control): 15%
Velvetleaf (ABUTH); [10]
  ABUTH Obs (percent of control): 55%
Velvetleaf (ABUTH); [11]
  ABUTH Obs (percent of control): 40%
Common ragweed (AMBEL); [6]
  AMBEL Obs (percent of control): 60%
Common ragweed (AMBEL); [7]
  AMBEL Obs (percent of control): 73%
Common ragweed (AMBEL); [8]
  AMBEL Obs (percent of control): 83%
Common ragweed (AMBEL); [9]
  AMBEL Obs (percent of control): 57%
Common ragweed (AMBEL); [10]
  AMBEL Obs (percent of control): 60%
Common ragweed (AMBEL); [11]
  AMBEL Obs (percent of control): 75%
[1]; Diflufenzopyr 30 g a.i./ha
  POLPY Obs (percent of control): 30%
[1]; Diflufenzopyr 45 g a.i./ha
  POLPY Obs (percent of control): 35%
[2]; [6]
  CHEAL Obs (percent of control): 50%
[2]; [7]
  CHEAL Obs (percent of control): 78%
[2]; [8]
  CHEAL Obs (percent of control): 10%
[2]; [9]
  CHEAL Obs (percent of control): 45%
[2]; [10]
  CHEAL Obs (percent of control): 65%
[2]; [11]
  CHEAL Obs (percent of control): 0%
Giant foxtail (SETFA); [6]
  SETFA Obs (percent of control): 40%
Giant foxtail (SETFA); [7]
  SETFA Obs (percent of control): 60%
Giant foxtail (SETFA); [8]
  SETFA Obs (percent of control): 68%
Giant foxtail (SETFA); [9]
  SETFA Obs (percent of control): 40%
Giant foxtail (SETFA); [10]
  SETFA Obs (percent of control): 58%
Giant foxtail (SETFA); [11]
  SETFA Obs (percent of control): 60%
Corn (ZEAMD); [6]
  ZEAMD Obs (percent of control): 100%
Corn (ZEAMD); [7]
  ZEAMD Obs (percent of control): 83%
Corn (ZEAMD); [8]
  ZEAMD Obs (percent of control): 100%
Corn (ZEAMD); [9]
  ZEAMD Obs (percent of control): 100%
Corn (ZEAMD); [10]
  ZEAMD Obs (percent of control): 88%
Corn (ZEAMD); [11]
  ZEAMD Obs (percent of control): 100%
Giant ragweed (AMBTR); Diflufenzopyr 45 g a.i./ha
  AMBTR Obs (percent of control): 75%
Redroot pigweed (AMARE) [3]; [6]
  AMARE Obs (percent of control): 48%
Redroot pigweed (AMARE) [3]; [7]
  AMARE Obs (percent of control): 63%
Redroot pigweed (AMARE) [3]; [8]
  AMARE Obs (percent of control): 30%
Redroot pigweed (AMARE) [3]; [9]
  AMARE Obs (percent of control): 47%
Redroot pigweed (AMARE) [3]; [10]
  AMARE Obs (percent of control): 55%
Redroot pigweed (AMARE) [3]; [11]
  AMARE Obs (percent of control): 55%

## Nc1c(Cl)c(F)nc(OCC(=O)O)c1Cl [Fluroxypyr]
Redroot pigweed (AMARE) [4]; Fluroxypyr 62 g a.i./ha
  AMARE Obs (scale 0 to 100): 67
Redroot pigweed (AMARE) [4]; Fluroxypyr 125 g a.i./ha
  AMARE Obs (scale 0 to 100): 77
Field poppy (PAPRH); Fluroxypyr 62 g a.i./ha
  PAPRH Obs (scale 0 to 100): 65
Field poppy (PAPRH); Fluroxypyr 125 g a.i./ha
  PAPRH Obs (scale 0 to 100): 73
Galium (GALAP); Fluroxypyr 62 g a.i./ha
  GALAP Obs (scale 0 to 100): 80
Galium (GALAP); Fluroxypyr 125 g a.i./ha
  GALAP Obs (scale 0 to 100): 85
Wild mustard (SINAR); Fluroxypyr 62 g a.i./ha
  SINAR Obs (scale 0 to 100): 75
Wild mustard (SINAR); Fluroxypyr 125 g a.i./ha
  SINAR Obs (scale 0 to 100): 75
Kochia (KCHSC); Fluroxypyr 62 g a.i./ha
  KCHSC Obs (scale 0 to 100): 68
Kochia (KCHSC); Fluroxypyr 125 g a.i./ha
  KCHSC Obs (scale 0 to 100): 73
Field violet (VIOAR); Fluroxypyr 62 g a.i./ha
  VIOAR Obs (scale 0 to 100): 73
Field violet (VIOAR); Fluroxypyr 125 g a.i./ha
  VIOAR Obs (scale 0 to 100): 82
Russian thistle (SASKR); Fluroxypyr 62 g a.i./ha
  SASKR Obs (scale 0 to 100): 75
Russian thistle (SASKR); Fluroxypyr 125 g a.i./ha
  SASKR Obs (scale 0 to 100): 75
Wild buckwheat (POLCO); Fluroxypyr 62 g a.i./ha
  POLCO Obs (scale 0 to 100): 68
Wild buckwheat (POLCO); Fluroxypyr 125 g a.i./ha
  POLCO Obs (scale 0 to 100): 75
Common chickweed (STEME); Fluroxypyr 62 g a.i./ha
  STEME Obs (scale 0 to 100): 75
Common chickweed (STEME); Fluroxypyr 125 g a.i./ha
  STEME Obs (scale 0 to 100): 83
[5]; Fluroxypyr 62 g a.i./ha
  CHEAL Obs (scale 0 to 100): 47
[5]; Fluroxypyr 125 g a.i./ha
  CHEAL Obs (scale 0 to 100): 58
Wild chamomile (MATCH); Fluroxypyr 62 g a.i./ha
  MATCH Obs (scale 0 to 100): 60
Wild chamomile (MATCH); Fluroxypyr 125 g a.i./ha
  MATCH Obs (scale 0 to 100): 65

## COc1cc(OC)nc(NC(=O)NS(=O)(=O)c2ncccc2C(=O)N(C)C)n1 [Nicosulfuron]
Velvetleaf (ABUTH); [12]
  ABUTH Obs (percent of control): 48%
Velvetleaf (ABUTH); [13]
  ABUTH Obs (percent of control): 73%
Velvetleaf (ABUTH); [14]
  ABUTH Obs (percent of control): 100%
Common ragweed (AMBEL); [12]
  AMBEL Obs (percent of control): 95%
Common ragweed (AMBEL); [13]
  AMBEL Obs (percent of control): 100%
Common ragweed (AMBEL); [14]
  AMBEL Obs (percent of control): 100%
[1]; Nicosulfuron 15 g a.i./ha
  POLPY Obs (percent of control): 28%
[2]; [12]
  CHEAL Obs (percent of control): 95%
[2]; [13]
  CHEAL Obs (percent of control): 72%
[2]; [14]
  CHEAL Obs (percent of control): 53%
Giant foxtail (SETFA); [12]
  SETFA Obs (percent of control): 15%
Giant foxtail (SETFA); [13]
  SETFA Obs (percent of control): 11%
Giant foxtail (SETFA); [14]
  SETFA Obs (percent of control): 7%
Corn (ZEAMD); [12]
  ZEAMD Obs (percent of control): 100%
Corn (ZEAMD); [13]
  ZEAMD Obs (percent of control): 100%
Corn (ZEAMD); [14]
  ZEAMD Obs (percent of control): 100%
Giant ragweed (AMBTR); Nicosulfuron 15 g a.i./ha
  AMBTR Obs (percent of control): 100%
Redroot pigweed (AMARE) [3]; [12]
  AMARE Obs (percent of control): 2%
Redroot pigweed (AMARE) [3]; [13]
  AMARE Obs (percent of control): 2%
Redroot pigweed (AMARE) [3]; [14]
  AMARE Obs (percent of control): 33%
